Reference: patent US5929236A, “2-substituted morpholine and thiomorpholine derivatives as GABA-B antagonists” (Schering Corporation, priority 1995, dated 1999)

Tests used:
[1] = test system: Respiratory Depressant Effect of Baclofen; assay: Inhibition of Respiratory Depressant Effect of Baclofen; assay type: in vivo, guinea pig; details: for % Inhibition: mean ± SEM; for ED50: Cavia porcellus
Description: Animal Model for Respiratory Depression:
Place unanesthetized guinea pigs in a head-out plethysmograph and expose to a CO2 enriched gas mixture (10% CO2, 21% O2, 69% N2) for 10 min., (see Danko, et al., J. Pharm. Methods, 19, 165-173 (1988)). Plethysmograph pressure is detected with a transducer connected to a chart recorder. Minute ventilation is calculated as the product of tidal volume and respiratory frequency. The compound to be tested is administered orally, subcutaneously (sc), intraperitoneally (ip) or via an intracerebroventricular route (icv). Baclofen (3 mg/kg, sc) was given 30 min before exposure to the CO2 enriched gas. […] A 40 or 30 min. preteratment is used for the subcutaneous and intraperitoneal routes, respectively. The vehicle for oral, sc or ip administration is saline. For icv administration, single icv cannulae are placed in the lateral ventricle of anesthetized guinea pigs, (see McLeod, et al., Eur. J. Pharmacol., 209, 141-142 (1988)). The animals are allowed to recover approximately one week prior to use for ventilation experiments. The vehicle for icv administration is artificial cerebrospinal fluid (CSF).

[2] = biological target: prejunctional GABAB receptors (Cavia porcellus, UniProt A0A286X9P6); assay: In Vitro Assay (guinea pig trachea, reversal of baclofen inhibition of EFS-induced contractions); assay type: cell-based, guinea pig (male Hartley); details: 30 μmol/L baclofen
Chain of prejunctional GABAB receptors (A0A286X9P6 30-844): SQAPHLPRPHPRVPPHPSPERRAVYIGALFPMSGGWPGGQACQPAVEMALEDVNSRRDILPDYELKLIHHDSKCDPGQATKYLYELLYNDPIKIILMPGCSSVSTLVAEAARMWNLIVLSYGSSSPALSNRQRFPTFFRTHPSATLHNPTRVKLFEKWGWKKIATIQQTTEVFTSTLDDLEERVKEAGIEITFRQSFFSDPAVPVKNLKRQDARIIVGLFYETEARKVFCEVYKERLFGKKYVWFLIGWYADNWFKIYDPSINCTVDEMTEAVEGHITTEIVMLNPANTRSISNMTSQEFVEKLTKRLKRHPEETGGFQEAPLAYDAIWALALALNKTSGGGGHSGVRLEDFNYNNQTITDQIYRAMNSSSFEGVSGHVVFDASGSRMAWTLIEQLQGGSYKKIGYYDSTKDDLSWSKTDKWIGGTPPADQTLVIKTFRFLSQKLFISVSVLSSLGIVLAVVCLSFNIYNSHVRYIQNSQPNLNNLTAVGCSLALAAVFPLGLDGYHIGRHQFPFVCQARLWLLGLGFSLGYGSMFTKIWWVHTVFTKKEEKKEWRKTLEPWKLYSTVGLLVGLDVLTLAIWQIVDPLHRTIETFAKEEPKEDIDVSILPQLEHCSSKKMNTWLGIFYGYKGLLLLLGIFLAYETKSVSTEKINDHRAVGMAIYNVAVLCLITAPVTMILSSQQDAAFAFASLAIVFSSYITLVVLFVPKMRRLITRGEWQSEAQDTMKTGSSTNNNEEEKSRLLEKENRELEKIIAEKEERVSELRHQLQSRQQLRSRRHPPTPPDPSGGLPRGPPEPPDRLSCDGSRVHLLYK
Chain of prejunctional GABAB receptors (H0V741 1-820 partner): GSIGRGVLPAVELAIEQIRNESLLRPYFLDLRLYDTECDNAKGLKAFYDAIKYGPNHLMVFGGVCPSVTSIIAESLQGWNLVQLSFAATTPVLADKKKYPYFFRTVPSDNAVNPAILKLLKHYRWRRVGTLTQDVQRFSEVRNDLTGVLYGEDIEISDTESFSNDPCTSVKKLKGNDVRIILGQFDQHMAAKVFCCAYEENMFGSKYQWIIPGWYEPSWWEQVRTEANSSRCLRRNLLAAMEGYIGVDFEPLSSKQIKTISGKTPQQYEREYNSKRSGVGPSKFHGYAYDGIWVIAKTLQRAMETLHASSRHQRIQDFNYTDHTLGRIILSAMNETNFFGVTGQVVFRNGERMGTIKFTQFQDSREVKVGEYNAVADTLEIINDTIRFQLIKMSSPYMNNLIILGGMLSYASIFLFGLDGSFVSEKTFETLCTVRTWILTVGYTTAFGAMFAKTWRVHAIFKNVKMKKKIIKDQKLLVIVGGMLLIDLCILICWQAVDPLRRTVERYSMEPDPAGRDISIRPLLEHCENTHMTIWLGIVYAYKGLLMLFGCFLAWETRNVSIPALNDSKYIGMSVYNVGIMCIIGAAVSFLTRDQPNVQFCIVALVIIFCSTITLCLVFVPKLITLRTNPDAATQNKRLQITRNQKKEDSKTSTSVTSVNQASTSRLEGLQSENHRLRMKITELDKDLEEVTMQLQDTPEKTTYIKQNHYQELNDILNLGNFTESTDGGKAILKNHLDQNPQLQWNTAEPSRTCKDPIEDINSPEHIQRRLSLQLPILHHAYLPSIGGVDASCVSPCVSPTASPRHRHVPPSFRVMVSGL
Description: Male Hartley guinea pigs (450-650 g) are sacrificed by stunning and the trachea removed proximal to the carina and cut into 5 mm segments. The segments are attached to isometric force displacement transducers (Model FT03: Grass Instruments) and suspended in 15 mL organ baths filled with low Ca^2+ (0.6 mmol/L) Tyrode's buffer solution (pH 7.4) supplemented with 5.6 mmol/L glucose, 30 μmol/L choline and 2 μmol/L indomethacin. The solution is bubbled with a mixture of 95% O2 +5% CO2 and maintained at 37° C. The tracheal segments are allowed to equilibrate for 90 minutes under a resting tension of 0.5 g.
Platinum electrodes are placed on either side of the trachea and electrical field stimulation (EFS) (20 V, 8 Hz, 0.5 ms pulse for 5 s) was generated each minute from an electrical stimulator (Model S-88: Grass Instruments) and delivered to the electrodes through a stimulus distributor (Buxco Electronics). The stimulation parameters are chosen as appropriate for producing cholinergic contractions of the trachea that are sensitive to the inhibitory effects of compounds acting at prejunctional GABAB receptors. Contractile responses were recorded on a polygraph (Harvard Apparatus). The compound to be tested is added to the bath 10 min. before addition of 30 μmol/L baclofen. The effect of baclofen treatment in the absence or in the presence of the compound to be tested is expressed as a percent inhibition of EFS-induced contractions.

- inhibition at 30 µM ([2]; 30 μM): 90%
- IC30 ([2]; guinea pig trachea): 1.1 µM
- In Vitro % inhibition ([2]; 100 μM): 94%
SMILES: CC1(C)COC(CC(=O)O)CN1 (single isomer, unassigned) [Example 6A]
- % Inhibition ([1]; 0.3 mg/kg ip): 39 ± 10%
- % Inhibition ([1]; 0.3 mg/kg sc): 27 ± 6%
- % Inhibition ([1]; 1.0 mg/kg ip): 32 ± 7%
- % Inhibition ([1]; 1.0 mg/kg oral, 60 min prior to baclofen): 36 ± 13%
- % Inhibition ([1]; 1.0 mg/kg sc): 66 ± 7%
- % Inhibition ([1]; 3.0 mg/kg ip): 59 ± 7%
- % Inhibition ([1]; 3.0 mg/kg oral, 60 min prior to baclofen): 51 ± 13%
- % Inhibition ([1]; 3.0 mg/kg sc): 97 ± 25%
- % Inhibition ([1]; 10 mg/kg ip): 100 ± 9%
- % Inhibition ([1]; 10 mg/kg oral, 60 min prior to baclofen): 68 ± 13%
- % Inhibition ([1]; 10 mg/kg sc): 99 ± 11%
- % Inhibition ([1]; 30 mg/kg oral, 60 min prior to baclofen): 78 ± 29%
- ED50 ([1]; ip): 1.9 mg/kg
- ED50 ([1]; sc): 0.63 mg/kg
- ED50 ([1]; oral, 60 min prior to baclofen): 3 mg/kg
